The text below walks through data of patent US20230210890A1, “COMPOSITIONS AND METHODS OF TREATING COVID-19 WITH HEPARIN OR OTHER NEGATIVELY CHARGED MOLECULES” (Siemens Healthcare Diagnostics Inc., priority 2020, published 2023).

Experiment [1] deals with hospitalized patients with Covid-19. The conditions noted are these: WHO Solidarity Trial; cited from earlier work.
The next experiment has as its system SARS CoV-2. The conditions noted are these: whole blood or plasma samples collected with the anticoagulant.
In experiment [2] the test system is adults with mild COVID-19. The conditions noted are these: cited from earlier work.

As for `CCN(CCO)CCCC(C)Nc1ccnc2cc(Cl)ccc12` (centres unmarked) [hydroxychloroquine], the “effect on hospitalized patients with Covid-19” value in experiment [1] is listed as “little or no effect”.

In the case of `Cc1cccc(C)c1OCC(=O)N[C@@H](Cc1ccccc1)[C@@H](O)C[C@H](Cc1ccccc1)NC(=O)[C@H](C(C)C)N1CCCNC1=O` [lopinavir], the “effect on hospitalized patients with Covid-19” value in experiment [1] was “little or no effect”. For the molecule heparin sodium [sodium heparin], in the experiment on SARS CoV-2, the “inhibition of certain SARS CoV-2 assays” value is listed as “inhibited”. As to ivermectin, the “effect on the duration of symptoms” value in experiment [2] is “not have a significant effect”. lithium heparin: the “inhibition of certain SARS CoV-2 assays” value in the experiment with SARS CoV-2 is given as “inhibited”.
